Earlier results in US9109266B2, “Process of producing sugar composition comprising D-psicose and D-allose via strong alkaline isomerization of D-glucose/D-fructose or alkaline pre-treatment of D-glucose/D-fructose followed by isomerization in the presence of a basic ion exchange resin” (MATSUTANI CHEMICAL INDUSTRY CO., LTD., priority 2009, dated 2015).
Read-outs that look alike come from different tables or passages of the source.

Assays:
[1] = for Body fat decrement ratio (%) / Body weight decrement ratio (%) / Feed intake decrement ratio (%): compared with control group; for reduction of blood sugar level / reduction of insulin level: reports 1 and 2
[2] = non-patent reference 10 (report 4)
[3] = D-psicose administration; non-patent reference 11
[4] = Report 2, D-allose at 3% in total solids
[5] = Report 1, D-psicose at 5% in total solids

SMILES | Body fat decrement ratio (%) [1, 4] [%] | Body weight decrement ratio (%) [1, 4] [%] | Feed intake decrement ratio (%) [1, 4] [%] | reduction of blood sugar level [1] | reduction of insulin level [1] | contribution to body weight [2] | contribution to the amount of feed intake [2] | intra-day variation of insulin level [3] | Body fat decrement ratio (%) [1, 5] [%] | Body weight decrement ratio (%) [1, 5] [%] | Feed intake decrement ratio (%) [1, 5] [%]
O=C[C@H](O)[C@H](O)[C@H](O)[C@H](O)CO [D-allose] | 19 | 17 | 8 | No significant reduction | No significant reduction | – | – | – | – | – | –
O=C[C@@H](O)[C@@H](O)[C@H](O)[C@H](O)CO [D-mannose] | – | – | – | – | – | never makes any contribution | never makes any contribution | – | – | – | –
O=C(CO)[C@H](O)[C@H](O)[C@H](O)CO [D-psicose] | – | – | – | No significant reduction | No significant reduction | – | – | no reduction of insulin level | 15 | 6 | 6
